Molecules are shown by their SMILES. Several values for one entry are separate records, joined by “and”; a condition that tells them apart may be missing. Identical values can stand only once.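 Assay format: 96-well plates, 48-hour exposure. Abbreviation: GI50, concentration required for 50% inhibition of growth. At the TGI there is no net growth.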

This assay relates to P388 leukemia. In words: NCI tumour cell line growth inhibition, 48 h.

In turn, `COc1ccc(C(=O)/C(Br)=C/C(=O)O)cc1` came in with a TGI of 53700 nM. For `N#Cc1cn(C2OC(CO)C(O)C2O)c2ncnc(N)c12` (stereo not drawn), the GI50 is 5.28 nM and 45 nM; the TGI is 137 nM and 46.3 nM.

The values above are taken from PubChem BioAssay (NCI).
